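1) Cells in 96-well plates. 2) Compound, 48 h, 5 concentrations. 3) Linear interpolation between surrounding doses. 4) Unreached endpoint = highest concentration. Abbreviation: GI50, concentration required for 50% inhibition of growth. At the TGI there is no net growth.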
What was measured:
Assay in all cases: NCI tumour cell line growth inhibition, 48 h
[1] = tested on: IGROV1 ovarian
[2] = tested on: K-562 leukemia
[3] = tested on: UO-31 renal
[4] = tested on: HT29 colon
[5] = tested on: UACC-62 melanoma
[6] = tested on: HL-60(TB) leukemia
[7] = tested on: ACHN renal
[8] = tested on: HOP-62 NSCLC
[9] = tested on: MDA-MB-231 breast

SMILES	TGI [1] [µM]	TGI [2] [µM]	TGI [3] [µM]	TGI [4] [µM]	TGI [5] [µM]	TGI [6] [µM]	TGI [7] [µM]	TGI [8] [µM]	GI50 [1] [µM]	GI50 [2] [µM]	GI50 [3] [µM]	GI50 [4] [µM]	GI50 [5] [µM]	GI50 [6] [µM]	GI50 [7] [µM]	GI50 [9] [µM]	TGI [9] [µM]	GI50 [8] [µM]
COC(C(=O)NCCCCNC(=O)C(OC)c1ccccc1)c1ccccc1 (configuration not stated)	> 100	> 100	> 100	> 100	> 100	> 100	> 100	> 100										
CCCN(CCCC(NC(C)=O)C(=O)NCc1ccccc1)C(=O)NCCCl (configuration not stated)	> 100	> 100	> 100	> 100	> 100	> 100	> 100	> 100										
COc1cc(CNc2ccccc2C(=O)N2CCN(C(=O)c3cc(-c4cc(OC)c(OC)c(OC)c4)n4nc(-c5ccccc5)cc4n3)CC2)cc(OC)c1OC	> 100	> 100	> 100	12	> 100	> 100	> 100	> 100	7.73	1.56	1.54	3.5	2.37	1.98	4.24	7.02	67.8	6.04
O=c1[nH]c2cc(Cl)ccc2nc1/C(=N\O)C(O)c1ccc([N+](=O)[O-])cc1 (configuration not stated)	> 100	> 100	> 100	> 100	> 100	> 100	> 100	> 100										
COC(=O)C1[C@H](c2cc(OC)c(OC)c(OC)c2)OC(=O)C1(C(=O)OC)C(=O)c1ccc2c(c1)OCO2 (some centres not stated)	> 100	> 100	> 100	> 100	> 100	> 100	> 100	> 100										
O=[N+]([O-])C1Cc2ccccc2OC1c1ccccc1 (configuration not stated)	> 100	> 100	> 100	> 100	> 100	> 100	> 100	83.2										
CC(C)(C)C(=O)OCC1CCC(n2cnc3c(=O)[nH]c(N)nc32)O1 (configuration not stated)	> 100	> 100	> 100	> 100	> 100		> 100	> 100										
O=C1OC(O)C(Oc2c(Cl)cccc2Cl)=C1Cl (configuration not stated)	46.2	48	28.2	34.3	24.7	50.1	42.3	34.7										
C[N+](C)(C)CC(=O)N/N=C(\C(=O)NC1=C(Cl)C(=O)c2ccccc2C1=O)C(C#N)c1csc(-c2ccc([N+](=O)[O-])cc2)n1 (configuration not stated)	> 100	> 100	> 100	> 100	> 100	> 100	> 100	> 100										
N#C/C(=C1\SC(N=Nc2ccccc2)C(=O)N1c1ccccc1)c1nc2ccccc2[nH]1 (configuration not stated)	> 100	> 100	> 100	> 100	> 100	> 100	> 100	73.6										
Cn1c(=O)c2nc(-c3ccc(Cl)cc3)oc2n(C)c1=O		> 100	> 100	> 100	> 100	> 100	> 100											
COC(=O)C(Cc1nc2ccccc2[nH]c1=O)C(=O)C(=O)Nc1ccc([N+](=O)[O-])cc1[N+](=O)[O-] (configuration not stated)	55.4	> 100	43.6	35	38.9	66.5	33.3	45.4										
CC(=O)[CH-]C(=O)c1ccccc1.CC(=O)[CH-]C(=O)c1ccccc1.CCOCC[O-].CCOCC[O-].[Ti+4]	> 100	55.8	49.5	46.2	37.8	45.4	> 100	85.8	31.9	23	17.6	20.1	15.5	13.8	31.6			25.9
CCc1cccc(CC)c1NC(=O)C1=C(C)NC(C)=C(C(=O)Nc2c(CC)cccc2CC)C1c1ccc([N+](=O)[O-])cc1	52.4	93.5	> 100	40		48.7	> 100	> 100										
O=c1c2cccc3cccc(c4n1CCN=4)c32	> 100	> 100	> 100	> 100	> 100	> 100	> 100	> 100										
CN(C)C=C1C(Cl)=C(C=O)CC(C=O)=C1Cl	33	13.8	35.1	30	32.5	4.74	26.4	51.7										
